Target: Mu-type opioid receptor (Rattus norvegicus, UniProt P33535)
Assay: Displacement of [3H]DAMGO from mu opioid receptor in rat brain homogenate

Sequence of Mu-type opioid receptor (P33535 whole entry): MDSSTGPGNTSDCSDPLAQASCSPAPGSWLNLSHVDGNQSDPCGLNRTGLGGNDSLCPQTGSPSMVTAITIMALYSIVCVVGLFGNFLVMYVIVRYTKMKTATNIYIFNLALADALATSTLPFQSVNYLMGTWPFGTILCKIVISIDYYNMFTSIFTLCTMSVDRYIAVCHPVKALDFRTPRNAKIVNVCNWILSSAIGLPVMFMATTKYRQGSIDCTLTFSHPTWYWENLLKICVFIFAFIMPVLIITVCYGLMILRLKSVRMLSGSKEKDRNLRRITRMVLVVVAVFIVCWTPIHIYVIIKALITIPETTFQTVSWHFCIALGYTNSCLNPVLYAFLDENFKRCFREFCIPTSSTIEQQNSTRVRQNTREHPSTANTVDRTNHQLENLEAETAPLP

SMILES: CN[C@@H](Cc1ccc(O)cc1)CN(C)[C@H](CNCc1ccccc1)Cc1ccc(O)cc1 [4-[(2S)-3-{[(2S)-1-(benzylamino)-3-(4-hydroxyphenyl)propan-2-yl](methyl)amino}-2-(methylamino)propyl]phenol]
- IC50: 2 nM

Source: BindingDB's records for doi:10.1016/j.bmcl.2006.05.053 (Institute For Molecular Studies, 2006)
